biological target: T1, full-length ATR (Homo sapiens, UniProt Q13535); test: ATR Inhibition Assay (radioactive-phosphate incorporation); format: biochemical; conditions: Ki(app); 5 nM full-length ATR, 10 μM ATP, 800 μM target peptide, 25° C.
T1 construct: in the presence of 5 nM full-length ATR
In short: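 Buffer was 50 mM Tris/HCl pH 7.5, 10 mM MgCl2, 1 mM DTT, with 5 nM enzyme, 10 μM [γ-33P]ATP and 800 μM target peptide at 25 °C. Compound was pre-incubated 10 min before ATP start, and the reaction was stopped after 24 h. Phosphocellulose filter capture; Ki(app) came from non-linear regression of background-corrected initial rates.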

T1 sequence (Q13535 whole entry): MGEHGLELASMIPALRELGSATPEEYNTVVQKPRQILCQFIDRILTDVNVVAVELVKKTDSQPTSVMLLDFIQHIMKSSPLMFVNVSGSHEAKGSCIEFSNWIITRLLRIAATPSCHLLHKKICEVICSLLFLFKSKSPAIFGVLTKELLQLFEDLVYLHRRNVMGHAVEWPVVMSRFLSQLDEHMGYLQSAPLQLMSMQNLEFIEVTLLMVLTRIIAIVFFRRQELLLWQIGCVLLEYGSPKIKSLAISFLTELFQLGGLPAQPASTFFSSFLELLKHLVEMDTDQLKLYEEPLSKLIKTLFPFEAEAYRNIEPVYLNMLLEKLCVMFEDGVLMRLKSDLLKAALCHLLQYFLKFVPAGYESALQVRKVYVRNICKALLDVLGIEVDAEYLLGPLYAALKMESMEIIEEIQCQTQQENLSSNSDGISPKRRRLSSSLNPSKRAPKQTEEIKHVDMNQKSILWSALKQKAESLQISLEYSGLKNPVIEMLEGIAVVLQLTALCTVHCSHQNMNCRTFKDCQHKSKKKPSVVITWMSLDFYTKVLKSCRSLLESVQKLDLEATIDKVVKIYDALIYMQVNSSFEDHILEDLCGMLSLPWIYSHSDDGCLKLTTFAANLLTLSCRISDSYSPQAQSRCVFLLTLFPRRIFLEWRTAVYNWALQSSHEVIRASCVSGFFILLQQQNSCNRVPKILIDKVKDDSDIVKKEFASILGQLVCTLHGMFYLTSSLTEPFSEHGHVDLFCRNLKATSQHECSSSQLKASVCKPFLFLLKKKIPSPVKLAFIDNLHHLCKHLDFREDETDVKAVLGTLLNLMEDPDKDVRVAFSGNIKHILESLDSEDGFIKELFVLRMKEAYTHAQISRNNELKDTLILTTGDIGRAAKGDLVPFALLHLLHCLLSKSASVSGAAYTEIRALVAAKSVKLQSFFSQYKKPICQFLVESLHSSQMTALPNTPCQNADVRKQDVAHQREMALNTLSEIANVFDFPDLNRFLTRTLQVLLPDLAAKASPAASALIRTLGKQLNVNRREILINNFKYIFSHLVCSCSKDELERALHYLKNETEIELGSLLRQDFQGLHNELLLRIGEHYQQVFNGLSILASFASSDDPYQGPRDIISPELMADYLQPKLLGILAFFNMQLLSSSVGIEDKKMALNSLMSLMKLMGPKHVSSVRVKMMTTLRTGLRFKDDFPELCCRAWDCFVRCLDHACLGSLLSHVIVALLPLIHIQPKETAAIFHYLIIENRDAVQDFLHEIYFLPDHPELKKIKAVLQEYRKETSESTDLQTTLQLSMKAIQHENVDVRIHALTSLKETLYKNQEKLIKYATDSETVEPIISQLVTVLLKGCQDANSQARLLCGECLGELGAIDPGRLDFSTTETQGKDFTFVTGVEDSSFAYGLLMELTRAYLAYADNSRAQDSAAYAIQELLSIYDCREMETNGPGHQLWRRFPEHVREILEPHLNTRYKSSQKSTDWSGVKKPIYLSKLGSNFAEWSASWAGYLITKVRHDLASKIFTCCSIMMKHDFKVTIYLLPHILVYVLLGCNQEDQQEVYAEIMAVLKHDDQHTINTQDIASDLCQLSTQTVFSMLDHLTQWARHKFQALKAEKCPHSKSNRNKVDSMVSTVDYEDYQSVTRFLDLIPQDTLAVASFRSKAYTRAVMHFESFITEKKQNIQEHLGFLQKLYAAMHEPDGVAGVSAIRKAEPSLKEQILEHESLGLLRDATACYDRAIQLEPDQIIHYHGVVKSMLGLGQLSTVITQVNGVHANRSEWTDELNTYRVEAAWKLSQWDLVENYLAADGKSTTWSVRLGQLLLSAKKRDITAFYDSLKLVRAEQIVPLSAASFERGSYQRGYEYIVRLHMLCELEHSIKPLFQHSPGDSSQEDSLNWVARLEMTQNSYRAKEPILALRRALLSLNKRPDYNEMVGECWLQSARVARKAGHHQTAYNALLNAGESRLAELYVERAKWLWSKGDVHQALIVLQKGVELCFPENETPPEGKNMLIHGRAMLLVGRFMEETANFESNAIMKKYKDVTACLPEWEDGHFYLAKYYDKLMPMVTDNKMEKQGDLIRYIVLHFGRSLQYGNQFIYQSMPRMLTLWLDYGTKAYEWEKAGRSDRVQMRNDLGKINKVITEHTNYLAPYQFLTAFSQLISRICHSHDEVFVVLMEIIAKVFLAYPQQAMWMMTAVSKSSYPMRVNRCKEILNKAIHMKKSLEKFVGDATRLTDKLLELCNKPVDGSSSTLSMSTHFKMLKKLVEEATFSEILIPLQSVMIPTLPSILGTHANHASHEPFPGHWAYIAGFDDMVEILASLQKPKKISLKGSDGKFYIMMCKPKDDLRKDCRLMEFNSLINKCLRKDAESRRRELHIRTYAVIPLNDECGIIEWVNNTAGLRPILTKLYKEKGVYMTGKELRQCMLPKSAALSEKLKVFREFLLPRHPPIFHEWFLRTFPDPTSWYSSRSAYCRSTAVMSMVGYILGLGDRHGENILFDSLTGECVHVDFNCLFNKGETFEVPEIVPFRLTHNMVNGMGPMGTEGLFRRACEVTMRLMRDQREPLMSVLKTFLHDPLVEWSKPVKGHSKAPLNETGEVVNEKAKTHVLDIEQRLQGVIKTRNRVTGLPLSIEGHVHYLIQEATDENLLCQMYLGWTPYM

SMILES	Ki
Nc1ncc(N2CCC3(CCNC3)C2)nc1-c1nnc(-c2ccccc2)o1 (stereo not shown) [Compound I-340, 3-(5-Phenyl-1,3,4-oxadiazol-2-yl)-5-(2,7-diazaspiro[4.4]nonan-2-yl)pyrazin-2-amine]	1000 to 10000 nM
CCS(=O)(=O)N1C2CCC1CN(c1cnc(N)c(-c3nnc(-c4ccc(CNC)cc4)o3)n1)C2 [Compound I-341, 5-(8-Ethylsulfonyl-3,8-diazabicyclo[3.2.1]octan-3-yl)-3-[5-[4-(methylaminomethyl)phenyl]-1,3,4-oxadiazol-2-yl]pyrazin-2-amine]	100 to 1000 nM
CCC(=O)N1CCC2(CCN(c3cnc(N)c(-c4nnc(-c5ccc(CNC)cc5)o4)n3)C2)C1 (stereo not shown) [Compound I-342, 1-(7-(5-Amino-6-(5-(4-((methylamino)methyl)phenyl)-1,3,4-oxadiazol-2-yl)pyrazin-2-yl)-2,7-diazaspiro[4.4]nonan-2-yl)propan-1-one]	100 to 1000 nM
CCNCc1ccc(-c2nnc(-c3nc(N4CCCC4)cnc3N)o2)cc1 [Compound I-343, 3-[5-[4-(Aethylaminomethyl)phenyl]-1,3,4-oxadiazol-2-yl]-5-pyrrolidin-1-yl-pyrazin-2-amine]	< 100 nM
CNCc1ccc(-c2nnc(-c3nc(N4CCC5(CCN(C)C5=O)CC4)cnc3N)o2)cc1 [Compound I-344, 8-[5-Amino-6-[5-[4-(methylaminomethyl)phenyl]-1,3,4-oxadiazol-2-yl]pyrazin-2-yl]-2-methyl-2,8-diazaspiro[4.5]decan-1-one]	< 100 nM
CCS(=O)(=O)N1CCN(c2cnc(N)c(-c3nnc(-c4ccc(CNC)cc4)o3)n2)C[C@@H]1C [Compound I-345, 5-[(35)-4-Ethylsulfonyl-3-methyl-piperazin-1-yl]-3-[5-[4-(methylaminomethyl)phenyl]-1,3,4-oxadiazol-2-yl]pyrazin-2-amine]	< 100 nM
CNCCC(=O)N1CC=C(c2cnc(N)c(-c3nc4ccccc4[nH]3)n2)CC1 [Compound I-346, 1-(4-(5-Amino-6-(1H-benzo[d]imidazol-2-yl)pyrazin-2-yl)-5,6-dihydropyridin-1(2H)-yl)-3-(methylamino)propan-1-one]	100 to 1000 nM
CCNC(=O)[C@@H]1CCCN1c1cnc(N)c(-c2nnc(-c3ccc(CNC)cc3)o2)n1 [Compound I-348, (25)-1-[5-Amino-6-[5-[4-(methylaminomethyl)phenyl]-1,3,4-oxadiazol-2-yl]pyrazin-2-yl]-N-ethyl-pyrrolidine-2-carboxamide]	1000 to 10000 nM
CNCc1ccc(-c2nnc(-c3nc(N4C[C@@H]5C(C(=O)O)[C@@H]5C4)cnc3N)o2)cc1 (stereo partly drawn) [Compound I-349, (1R,5S)-3-[5-Amino-6-[5-[4-(methylaminomethyl)phenyl]-1,3,4-oxadiazol-2-yl]pyrazin-2-yl]-3-azabicyclo[3.1.0]hexane-6-carboxylic acid]	100 to 1000 nM
CCNC(=O)C1[C@H]2CN(c3cnc(N)c(-c4nnc(-c5ccc(CNC)cc5)o4)n3)C[C@@H]12 (stereo partly drawn) [Compound I-350, (1R,5S)-3-[5-Amino-6-[5-[4-(methylaminomethyl)phenyl]-1,3,4-oxadiazol-2-yl]pyrazin-2-yl]-N-ethyl-3-azabicyclo[3.1.0]hexane-6-carboxamide]	100 to 1000 nM
CNCc1ccc(-c2nnc(-c3nc(N4C[C@@H]5C(C(=O)N(C)C)[C@@H]5C4)cnc3N)o2)cc1 (stereo partly drawn) [Compound I-351, (1R,5S)-3-[5-Amino-6-[5-[4-(methylaminomethyl)phenyl]-1,3,4-oxadiazol-2-yl]pyrazin-2-yl]-N,N-dimethyl-3-azabicyclo[3.1.0]hexane-6-carboxamide]	100 to 1000 nM
CNCc1ccc(-c2nnc(-c3nc(N4CCC[C@H]4CO)cnc3N)o2)cc1 [Compound I-352, [(2S)-1-[5-Amino-6-[5-[4-(methylaminomethyl)phenyl]-1,3,4-oxadiazol-2-yl]pyrazin-2-yl]pyrrolidin-2-yl]methanol]	100 to 1000 nM
CCC(=O)N1CCC(c2cnc(N)c(-c3nnc(-c4ccc(CNC)cc4)o3)n2)CC1 [Compound I-353, 1-(4-(5-Amino-6-(5-(4-((methylamino)methyl)phenyl)-1,3,4-oxadiazol-2-yl)pyrazin-2-yl)piperidin-1-yl)propan-1-one]	100 to 1000 nM
